These are literature values, as cited in patent EP2959895A1, “Compositions comprising Phenylalanine and Leucine for use in the diagnosis and treatment of neurological disorders and symptoms thereof” (Rheinisch-Westfälische Technische Hochschule Aachen (RWTH), priority 2014, dated 2015).

The target in this series is T1, L-1 transporter (Rattus norvegicus, UniProt Q63016).
T1 construct: blood brain barrier (BBB) transport for fourteen amino acids in anesthetized rats; host or cells: Blood-brain barrier of anesthetized rats, in vivo
The conditions noted are these: blood brain barrier (BBB) transport, anesthetized rats; Pardridge and Oldendorf 1975.

SMILES strings stand for the structures.

T1 sequence (Q63016 whole entry): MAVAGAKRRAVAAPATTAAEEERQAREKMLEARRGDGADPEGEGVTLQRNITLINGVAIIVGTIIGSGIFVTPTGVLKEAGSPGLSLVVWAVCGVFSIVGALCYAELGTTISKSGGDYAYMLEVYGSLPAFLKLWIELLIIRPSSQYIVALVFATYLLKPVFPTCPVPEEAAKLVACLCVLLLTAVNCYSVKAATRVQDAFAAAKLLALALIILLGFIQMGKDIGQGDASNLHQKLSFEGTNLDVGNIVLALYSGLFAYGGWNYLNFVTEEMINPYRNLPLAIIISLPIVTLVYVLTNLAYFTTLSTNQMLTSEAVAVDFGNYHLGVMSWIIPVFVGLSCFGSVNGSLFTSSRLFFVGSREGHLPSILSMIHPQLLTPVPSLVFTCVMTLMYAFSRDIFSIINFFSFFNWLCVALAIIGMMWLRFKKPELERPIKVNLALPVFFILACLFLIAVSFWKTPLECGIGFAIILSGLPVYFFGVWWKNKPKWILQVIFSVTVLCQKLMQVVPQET
T1 sequence (Q794F9 whole entry partner): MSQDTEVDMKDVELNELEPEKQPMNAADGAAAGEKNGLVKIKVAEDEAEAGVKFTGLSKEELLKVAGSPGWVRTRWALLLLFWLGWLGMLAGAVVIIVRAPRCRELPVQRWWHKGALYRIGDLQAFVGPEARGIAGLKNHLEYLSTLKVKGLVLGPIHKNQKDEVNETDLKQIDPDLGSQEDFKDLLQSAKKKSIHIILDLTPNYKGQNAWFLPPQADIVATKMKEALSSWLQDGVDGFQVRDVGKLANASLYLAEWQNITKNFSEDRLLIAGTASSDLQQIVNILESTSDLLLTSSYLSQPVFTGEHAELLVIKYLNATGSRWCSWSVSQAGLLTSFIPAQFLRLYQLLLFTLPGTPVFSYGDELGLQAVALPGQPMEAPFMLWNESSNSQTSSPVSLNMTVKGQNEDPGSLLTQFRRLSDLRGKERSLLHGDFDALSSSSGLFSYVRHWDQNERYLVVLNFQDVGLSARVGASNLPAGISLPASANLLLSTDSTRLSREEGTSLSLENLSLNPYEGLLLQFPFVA

As a reminder, the Km is the substrate concentration at which the rate is half of its maximum. For `N[C@@H](Cc1ccccc1)C(=O)O` [phenylalanine], the Km was 120 µM.

Consider `CC(C)C[C@H](N)C(=O)O` [leucine], for which the Km is 150 µM.
